Data as given in patent US7615527B2, “Peptides which modulate blood coagulation and methods of use thereof” (Oregon Health & Science University, priority 2001, dated 2009).
Ends that are not written are not given here.

How the values were obtained:
[1] = tested on: normal human reference plasma; assay: Activated partial thromboplastin time (aPTT) assay in human plasma; format: biochemical; settings: 1 mM peptide; reference blood plasma; without peptide 29.0±0.1 seconds
Protocol: Activated Partial Thromboplastin Time (aPTT) Assay. This anti-coagulation assay was chosen for testing the γ′ peptides due to its sensitivity to heparin-like compounds, its ease of use, and the ability to automate the procedure. An MLA 1600 instrument (Organon Teknika) was used to quantitate the effect of the γ′ peptides on the aPTT, using the manufacturer's protocol. Briefly, 0-1 mM γ′ peptides or 0-10 units/ml unfractionated heparin was added to 50 μl of normal reference plasma (Ortho) and manually loaded into the MLA 1600. The MLA 1600 added SynthASil aPTT reagent (Ortho) to initiate clotting, and clot formation was monitored spectrophotometrically for 106 seconds. […] Prothrombin Time/International Normalized Ratio Assay. This clotting assay is less sensitive to heparin than the aPTT, and may be used to determine if a γ′ peptide is capable of prolonging the prothrombin time (PT) to the same extent as the 3 aPTT. One-stage PT assays may be performed using an MLA 1600 instrument according to the manufacturer's protocol. Briefly, 0-1 mM γ′ peptide or scrambled peptide or 0-10 units/ml unfractionated heparin may be added to 50 μl of normal reference plasma (Ortho) and manually loaded into the MLA 1600. The MLA 1600 may be used to add recombinant thromboplastin (Recombiplastin, Ortho) to initiate clotting, and clot formation monitored spectrophotometrically for 106 seconds. If a clot is not generated within 106 seconds, the MLA will automatically extend the observation time to 212 seconds.
An aPTT assay was performed using human plasma to determine the effect of γ′ peptide on the clotting time in this system. […] The MLA 1600 added SynthASil aPTT reagent (Ortho) to initiate clotting and clot formation was monitored spectrophotometrically for 106 seconds. […]
An aPTT assay was performed using human plasma to determine the effect of γ′ deletion peptides on the clotting time in this system. […] The MLA 1600 added SynthASil aPTT reagent (Ortho) to initiate clotting and clot formation was monitored spectrophotometrically for 106 seconds. […]

[2] = tested on: platelet aggregation in platelet-rich plasma; assay: Platelet aggregometry assay (PAP-4) in platelet-rich plasma; format: cell-based; settings: for Platelet aggregation Slope, ADP / Platelet aggregation Extent, ADP: 2 μM ADP; for Platelet aggregation Slope, ADP: 0 mM: 47; for Platelet aggregation Extent, ADP / Platelet aggregation Extent, Epinephrine: 0 mM: 83%; for Platelet aggregation Slope, Epinephrine / Platelet aggregation Extent, Epinephrine: 10 μg/ml epinephrine; for Platelet aggregation Slope, Epinephrine: 0 mM: 24; for Platelet aggregation Slope, Arachidonic Acid / Platelet aggregation Extent, Arachidonic Acid: 0.5 mg/ml arachidonic acid; for Platelet aggregation Slope, Arachidonic Acid: 0 mM: 32; for Platelet aggregation Extent, Arachidonic Acid: 0 mM: 82%; for Platelet aggregation Extent, Thrombin / Platelet aggregation Slope, Thrombin: 0.2 units/ml thrombin; for Platelet aggregation Extent, Thrombin: 0 mM: 97%; for Platelet aggregation Slope, Thrombin: 0 mM: 113
Protocol: Reptilase Time Assays. The reptilase time may be used as a control assay to examine the effects of a γ′ peptide. This assay is insensitive to thrombin inhibitors, since reptilase is used to clot fibrinogen rather than thrombin. An LA STA instrument (Diagnostica Stago) may be used to quantitate the effect of the γ′ peptide on the RVV, using the manufacturer's protocol. Briefly, 0-1 mM γ′ peptide or scrambled peptide or 0-10 units/ml unfractionated heparin may be added to 1 ml of normal reference plasma (DVVtroll) and loaded into the LA STA. The LA STA may be used to add Reptilase ST reagent (American Diagnostica) to initiate clotting, and clot formation monitored spectrophotometrically for 65 seconds. […] Platelet Aggregometzy Assays. This assay may be used to test the effects of a γ′ peptide on platelet aggregation in platelet-rich plasma. The activity of a γ′ peptide may be assayed in the presence or absence of epinephrine, ADP, collagen, ristocetin, arachidonic acid, and thrombin. A PAP-4 platelet aggregometer (Bio/Data) was used to quantitate the effect of the γ′ peptide on platelet aggregation, using the manufacturer's protocol. […] Blood was centrifuged for 10 minutes at 1,000×g, to isolate the supernatant of platelet-rich plasma. All experiments were performed within 2 hours of the blood draw. 0-1 mM γ′ peptide or scrambled peptide or 0-10 units/ml unfractionated heparin was added to 450 μl of platelet-rich plasma and loaded into siliconized cuvettes. 50 μl of agonist was added and the absorbance monitored for 6 minutes. The agonists used were 10 μg/ml epinephrine (American Reagent Laboratories), 2 μM ADP (Sigma), 0.5 mg/ml arachidonic acid (Bio/Data), or 0.2 units/ml thrombin. The presence or absence of a bi-phasic response may be determined, which is of particular significance in the presence of epinephrine, ADP, and ristocetin. The length of the lag phase may be determined, which is especially relevant in the presence of collagen. PFA-100 Assays. The effect of the γ′ peptide on platelet function may also be assessed using a Platelet Function Analyzer (PFA-100™, Dade Behring). The PFA-100 instrument measures the closure time of a capillary tube containing whole blood. This assay may be used to advantage to examine the effect of γ′ peptide on platelet function in whole blood in the presence of either of the platelet agonists epinephrine or ADP. Briefly, 0-1 mM γ′ peptide or scrambled peptide or 0-10 units/ml unfractionated heparin may be added to 800 μl of normal reference whole blood from an established control group and loaded into the PFA-100 to measure the closure time. Platelet function may be tested using both a collagen/epinephrine cartridge and a collagen/ADP cartridge
Platelet aggregation assays were performed as described hereinabove. A PAP-4 platelet aggregometer (Bio/Data) was used to quantitate the effect of the γ′ peptide on platelet aggregation, using the manufacturer's protocol.
Blood was centrifuged for 10 minutes at 1,000×g, and the supernatant of platelet-rich plasma was separated. 0-1 mM γ′ peptide was added to 450 μl of platelet-rich plasma and loaded into siliconized cuvettes. 50 μl of agonist was added, and the absorbance was monitored for 6 minutes. The agonists used were 2 μM ADP (Sigma), 0.5 mg/ml arachidonic acid (Bio/Data), 10 μg/ml epinephrine (American Reagent Laboratories), or 0.2 units/ml thrombin.

PEHPAETEY(*)DSLY(*)PEDDL (PEHPAETEYDSLYPEDDL; not fully specified (residues 9, 13); printed as PEHPAETEY(*)DSLY(*)PEDDL) [γ′ 410-427]
Blood clotting time, activated partial thromboplastin assay [1]: 55.1 ± 0.0 s
Platelet aggregation Slope, ADP ([2]; 0.125 mM peptide): 43
Platelet aggregation Extent, ADP ([2]; 0.125 mM peptide): 87%
Platelet aggregation Slope, ADP ([2]; 0.25 mM peptide): 40
Platelet aggregation Extent, ADP ([2]; 0.25 mM peptide): 86%
Platelet aggregation Slope, ADP ([2]; 0.5 mM peptide): 39
Platelet aggregation Extent, ADP ([2]; 0.5 mM peptide): 82%
Platelet aggregation Slope, ADP ([2]; 1.0 mM peptide): 32
Platelet aggregation Extent, ADP ([2]; 1.0 mM peptide): 58%
Platelet aggregation Slope, Epinephrine ([2]; 0.125 mM peptide): 22
Platelet aggregation Extent, Epinephrine ([2]; 0.125 mM peptide): 84%
Platelet aggregation Slope, Epinephrine ([2]; 0.25 mM peptide): 20
Platelet aggregation Extent, Epinephrine ([2]; 0.25 mM peptide): 82%
Platelet aggregation Slope, Epinephrine ([2]; 0.5 mM peptide): 16
Platelet aggregation Extent, Epinephrine ([2]; 0.5 mM peptide): 78%
Platelet aggregation Slope, Epinephrine ([2]; 1.0 mM peptide): 9
Platelet aggregation Extent, Epinephrine ([2]; 1.0 mM peptide): 43%
Platelet aggregation Slope, Arachidonic Acid ([2]; 0.125 mM peptide): 33
Platelet aggregation Extent, Arachidonic Acid ([2]; 0.125 mM peptide): 81%
Platelet aggregation Slope, Arachidonic Acid ([2]; 0.25 mM peptide): 35
Platelet aggregation Extent, Arachidonic Acid ([2]; 0.25 mM peptide): 82%
Platelet aggregation Slope, Arachidonic Acid ([2]; 0.5 mM peptide): 31
Platelet aggregation Extent, Arachidonic Acid ([2]; 0.5 mM peptide): 83%
Platelet aggregation Slope, Arachidonic Acid ([2]; 1.0 mM peptide): 34
Platelet aggregation Extent, Arachidonic Acid ([2]; 1.0 mM peptide): 85%
Platelet aggregation Extent, Thrombin ([2]; 0.125 mM peptide): 68%
Platelet aggregation Slope, Thrombin ([2]; 0.125 mM peptide): 70
Platelet aggregation Extent, Thrombin ([2]; 0.25 mM peptide): 64%
Platelet aggregation Slope, Thrombin ([2]; 0.25 mM peptide): 39
Platelet aggregation Extent, Thrombin ([2]; 0.5 mM peptide): 93%
Platelet aggregation Slope, Thrombin ([2]; 0.5 mM peptide): 21
Platelet aggregation Extent, Thrombin ([2]; 1.0 mM peptide): 33%
Platelet aggregation Slope, Thrombin ([2]; 1.0 mM peptide): 10
